Patent US20230172204A1 (BASF SE, priority 2020, published 2023)

Legend:
[1] = system: Pyricularia oryzae; test: microbe, parasite or virus in culture; format: cell-based; details: Pyricularia oryzae, 168 h, read-out: Fungal growth (%) PYRIOR
[2] = system: Alternaria solani (wt); test: microbe, parasite or virus in culture; format: cell-based; details: Alternaria solani, 168 h; 0.016 ppm; read-out: Fungal growth (%) ALTESO wt
[3] = system: Alternaria solani (F129L); test: Micro titer plate test against Alternaria solani causing early blight (ALTESO F129L); format: cell-based; details: Alternaria solani, 168 h; 0.016 ppm; read-out: Fungal growth (%) ALTESO F129L
[4] = system: Microdochium nivale; test: Micro titer plate test against Microdochium nivale causing snow mould (MONGNI); format: cell-based; details: Microdochium nivale, 168 h; 0.016 ppm; read-out: Fungal growth (%) MONGNI
[5] = system: Phakopsora pachyrhizi (F129L); test: Protective control of soybean rust on soybeans (PHAKPA P2); format: in vivo; details: for % PHAKPA (F129L) Disease level P2 at 4 ppm: protective P2, 4 ppm; for % PHAKPA (F129L) Disease level P2 at 4 ppm / % PHAKPA (F129L) Disease level P2 at 16 ppm: soybean rust F129L; for % PHAKPA (F129L) Disease level P2 at 16 ppm: protective P2, 16 ppm; for PHAKPA (F129L) Disease level (%) P2 at 16 ppm / PHAKPA (F129L) Disease level (%) P2 at 4 ppm: P2 protective, % diseased leaf area
[6] = system: Phakopsora pachyrhizi (F129L); test: Protective control of soybean rust on soybeans (PHAKPA P6); format: in vivo; details: for % PHAKPA (F129L) Disease level P6 at 4 ppm: protective P6, 4 ppm; for % PHAKPA (F129L) Disease level P6 at 4 ppm / % PHAKPA (F129L) Disease level P6 at 16 ppm: soybean rust F129L; for % PHAKPA (F129L) Disease level P6 at 16 ppm: protective P6, 16 ppm; for PHAKPA (F129L) Disease level (%) P6 at 16 ppm / PHAKPA (F129L) Disease level (%) P6 at 4 ppm: P6 protective, % diseased leaf area

SMILES | % PHAKPA (F129L) Disease level P2 at 4 ppm [5] | % PHAKPA (F129L) Disease level P2 at 16 ppm [5] | % PHAKPA (F129L) Disease level P6 at 4 ppm [6] | % PHAKPA (F129L) Disease level P6 at 16 ppm [6] | also measured
Cc1cccc(-n2nnn(C)c2=O)c1COc1ccn(-c2ccc(Cl)cc2)n1 [drawing 928] | – | – | – | – | activity at 0.016 ppm [1]: 87%; activity at 0.016 ppm [2]: 98%; activity at 0.016 ppm [3]: 100%; activity at 0.016 ppm [4]: 97%
CCc1cccc(/C(=N\OC)C(=O)OC)c1CO/N=C(\C)c1cccc(C(F)(F)F)c1 [compound 61] | 70% | 15% | 90% | 18% | –
CO/C=C(/C(=O)OC)c1cccc(C)c1CO/N=C(\C)c1ccc(Cl)c(Cl)c1C(F)(F)F [compound 430] | 22% | 6% | 37% | 17% | –
CO/N=C(/C(=O)OC)c1cccc(C)c1CO/N=C(\C)c1ccc(C#N)cc1 [Ex. 155] | 97% | 30% | 93% | 20% | PHAKPA (F129L) Disease level (%) P2 at 16 ppm [5]: 23%; PHAKPA (F129L) Disease level (%) P6 at 16 ppm [6]: 18%
CO/N=C(/C(=O)OC)c1ccccc1CO/N=C(\C)c1cc(Cl)cc(Cl)c1 [reference compound] | – | – | – | – | PHAKPA (F129L) Disease level (%) P2 at 16 ppm [5]: 27%; PHAKPA (F129L) Disease level (%) P6 at 16 ppm [6]: 17%
CO/N=C(/C(=O)OC)c1cccc(C)c1CO/N=C(\C)c1ccccc1 [Ex. 30] | 53% | 1% | 77% | 2% | PHAKPA (F129L) Disease level (%) P2 at 16 ppm [5]: 2%; PHAKPA (F129L) Disease level (%) P6 at 16 ppm [6]: 1%
CNC(=O)/C(=N/OC)c1ccccc1CO/N=C(\C)c1ccc(Cl)c(Cl)c1 [reference compound] | – | – | – | – | PHAKPA (F129L) Disease level (%) P2 at 4 ppm [5]: 43%; PHAKPA (F129L) Disease level (%) P6 at 4 ppm [6]: 77%
COC=C(C(=O)OC)c1cccc(C)c1CON=C(C)c1cccc(C(F)(F)F)c1 [Ex. 231] | 0% | 0% | 2% | 0% | PHAKPA (F129L) Disease level (%) P2 at 4 ppm [5]: 0%; PHAKPA (F129L) Disease level (%) P6 at 4 ppm [6]: 2%
CNC(=O)/C(=N/OC)c1cccc(C)c1CO/N=C(\C)c1c(F)cccc1F [compound 214] | 14% | 0% | 28% | 4% | –
CO/N=C(/C(=O)OC)c1cccc(C)c1CO/N=C(\C)c1cc(Cl)c(F)c(Cl)c1 [compound 246] | 40% | 15% | 77% | 7% | –
CNC(=O)/C(=N/OC)c1cccc(C)c1CO/N=C(\C)c1ccc(Br)cc1 [compound 168] | 2% | 0% | 5% | 0% | –
CO/N=C(/C)c1ccc(/C(C)=N/OCc2c(C)cccc2/C(=N\OC)C(=O)OC)c(C(F)(F)F)c1 [compound 417] | 35% | 18% | 63% | 22% | –
CNC(=O)/C(=N/OC)c1cccc(C)c1CO/N=C(/c1ccccc1)C(C)C [compound 389] | 28% | 4% | 43% | 3% | –
CNC(=O)/C(=N/OC)c1cccc(C)c1CO/N=C(\C)c1ccccc1Cl [compound 128] | 32% | 2% | 77% | 2% | –
CNC(=O)/C(=N/OC)c1cccc(C)c1CO/N=C(/c1ccccc1)C(F)F [Ex. 73] | 0% | – | 19% | – | PHAKPA (F129L) Disease level (%) P2 at 4 ppm [5]: 1%; PHAKPA (F129L) Disease level (%) P6 at 4 ppm [6]: 37%
CNC(=O)/C(=N/OC)c1cccc(C)c1CO/N=C(\C)c1ccc(Cl)c(Cl)c1 [Ex. 41] | 15% | 9% | 36% | 14% | PHAKPA (F129L) Disease level (%) P2 at 4 ppm [5]: 4%; PHAKPA (F129L) Disease level (%) P6 at 4 ppm [6]: 35%
C#Cc1cc(F)c(F)c(/C(C)=N/OCc2c(C)cccc2/C(=N\OC)C(=O)NC)c1 [compound 243] | 4% | 0% | 37% | 1% | –
CNC(=O)/C(=N/OC)c1cccc(C)c1CO/N=C(\C)c1ccc(F)c(C(F)(F)F)c1 [compound 47] | 13% | 0% | 12% | 0% | –
CO/N=C(/C(=O)OC)c1cccc(C)c1CO/N=C(\C)c1ccccc1C(C)C [compound 218] | 100% | 87% | 100% | 100% | –
CNC(=O)/C(=N/OC)c1cccc(C)c1CO/N=C(\C)c1ccccc1C(F)F [compound 298] | 63% | 7% | 97% | 37% | –
CNC(=O)/C(=N/OC)c1cccc(C)c1CO/N=C(\C)c1ccc(/C(C)=N\OC)cc1OC(F)(F)F [compound 415] | 47% | 5% | 67% | 11% | –
CO/N=C(/C(=O)OC)c1cccc(C)c1CO/N=C(\C)c1cccc(C#CC(F)(F)F)c1 [compound 52] | 63% | 28% | 90% | 43% | –
CNC(=O)/C(=N/OC)c1cccc(C)c1CO/N=C(\C)c1cccc(OC/C(C)=N/OC)c1 [compound 226] | 28% | 3% | 57% | 7% | –
CO/N=C(/C(=O)OC)c1ccccc1CO/N=C(\C)c1ccc(Cl)cc1 [reference compound] | – | – | – | – | PHAKPA (F129L) Disease level (%) P2 at 16 ppm [5]: 63%; PHAKPA (F129L) Disease level (%) P6 at 16 ppm [6]: 43%
CNC(=O)/C(=N/OC)c1cccc(C)c1CO/N=C(\C)c1ccccc1C(C)(F)F [compound 372] | 85% | 26% | 85% | 16% | –
C#Cc1ccc(/C(C)=N/OCc2c(C)cccc2/C(=N\OC)C(=O)OC)cc1 [compound 172] | 35% | 1% | 83% | 12% | –
CO/N=C(/C(=O)OC)c1cccc(C)c1CO/N=C(\C)c1c(F)ccc(F)c1OC(F)(F)F [compound 366] | 53% | 13% | 83% | 12% | –
CO/N=C(/C(=O)OC)c1cccc(C)c1CO/N=C(\C)c1ccc(C(C)=O)cc1 [compound 166] | 100% | 83% | 90% | 43% | –
